Columns and labels:
[1] = biological target: T1, Cruzipain (Trypanosoma cruzi, UniProt P25779); assay: Trypanosoma cruzi cruzipain peptidase activity assay; format: biochemical; details: wild-type cruzipain from T. cruzi Dm28 epimastigotes; pH 6.75; 25±1° C.
T1 construct: Wild-type cruzipain, derived from Trypanosoma cruzi Dm28 epimastigotes; tissue Dr. Julio Scharfstein (Instituto de Biofisica Carlos Chagas Filho, Universidade Federal do Rio de Janeiro); host or cells: Trypanosoma cruzi Dm28 epimastigotes
Experimental: (§1) Assay protocols were based on literature precedent (Table1; Barrett, A. J., Rawlings, N. D. and Woessner, J. F., 1998, Handbook of Proteolytic Enzymes, Academic Press, London and references therein) and modified as required to suit local assay protocols. Enzyme was added as required to initiate the reaction and the activity, as judged by the change in fluorescence upon conversion of substrate to product, was monitored over time. All assays were carried out at 25±1° C.
Wild-type cruzipain, derived from Trypanosoma cruzi Dm28 epimastigotes, was obtained from Dr. Julio Scharfstein (Instituto de Biofisica Carlos Chagas Filho, Universidade Federal do Rio de Janeiro, Rio de Janeiro, Brazil). Activity assays were carried out in 100 mM sodium phosphate, pH 6.75 containing 1 mM EDTA and 10 mM L-cysteine using […] enzyme. Ac-Phe-Arg-AMC (KM^app≈12 μM) and D-Val-Leu-Lys-AMC (KM^app≈4 μM) were used as the substrates. Routinely, Ac-FR-AMC was used at a concentration equivalent to KM^app and D-Val-Leu-Lys-AMC was used at a concentration of 25 μM. The rate of conversion of substrate to product was derived from the slope of the increase in fluorescence monitored continuously over time.
(§2) The apparent inhibition constant (Ki) for each compound was determined on the basis that inhibition was reversible and occurred by a pure-competitive mechanism. The Ki values were calculated, from the dependence of enzyme activity as a function of inhibitor concentration, by direct regression analysis (Prism v 3.02) using Equation 2 (Cornish-Bowden, A., 1995.). [formula] […]
(§3) In situations where the apparent dissociation constant (Ki^app) approached the enzyme concentrations, the Ki^app values were calculated using a quadratic solution in the form described by Equation 3 (Morrison, J. F. Trends Biochem. Sci., 7, 102-105, 1982; Morrison, J. F. Biochim. Biophys. Acta, 185, 269-286, 1969; Stone, S. R. and Hofsteenge, J. Biochemistry, 25, 4622-4628, 1986). […]

[2] = biological target: T2, Bovine Cathepsin S (Bos taurus, UniProt P25326); assay: Cathepsin peptidase activity assay, bovine cathepsin S; format: biochemical; details: pH 6.5; boc-Val-Leu-Lys-AMC; 25±1° C.
T2 construct: purchased CN Biosciences
Experimental: as §1
(§4) Bovine cathepsin S, human cathepsin L, human cathepsin H and human cathepsin B were obtained from CN Biosciences. Recombinant human cathepsin S, human cathepsin K and human cathepsin X were obtained from Dr. Boris Turk (Josef Stefan Institute, Ljubljana, Slovenia). Unless otherwise stated, all peptidase activity assays were carried out in 10 mM bis-tris-propane (BTP), pH 6.5 containing 1 mM […], 5 mM 2-mercaptoethanol and 1 mM CaCl2. Human cathepsin H activity assays were carried out in 10 mM BTP pH 6.5, 142 mM […], 1 mM CaCl2, 1 mM EDTA, 1 mM DTT, 0.035 mM Zwittergent 3-16. […] The rate of conversion of substrate to product was derived from the slope of the increase in fluorescence monitored continuously over time.
as §2, with “1995.).” for “1995.). [formula]”
as §3

[3] = biological target: T3, Human Cathepsin L (Homo sapiens, UniProt P07711); assay: Cathepsin peptidase activity assay, human cathepsin L; format: biochemical; details: pH 6.5; Ac-Phe-Arg-AMC; 25±1° C.
T3 construct: purchased CN Biosciences
Experimental: as §1, §4
as §2, with “1995.).” for “1995.). [formula]”
as §3

[4] = biological target: T4, Human Cathepsin K (Homo sapiens, UniProt P43235); assay: Cathepsin peptidase activity assay, human cathepsin K; format: biochemical; details: pH 5.5; Z-Leu-Arg-AMC; 25±1° C.
T4 construct: Dr. Boris Turk (Josef Stefan Institute, Ljubljana, Slovenia), obtained from an academic laboratory, not a commercial vendor
T4 sequence (P43235 115-329): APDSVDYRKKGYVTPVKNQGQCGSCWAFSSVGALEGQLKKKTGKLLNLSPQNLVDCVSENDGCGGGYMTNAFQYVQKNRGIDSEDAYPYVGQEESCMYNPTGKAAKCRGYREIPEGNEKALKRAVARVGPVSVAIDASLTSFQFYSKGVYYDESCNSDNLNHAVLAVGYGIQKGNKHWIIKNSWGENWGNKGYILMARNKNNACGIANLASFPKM
Experimental: as §1, §4
as §2, with “1995.).” for “1995.). [formula]”
as §3

[5] = system: Trypanosoma cruzi; details: added to Trypanosoma cruzi-infected mammalian cell cultures; cited from earlier work
[6] = system: Trypanosoma cruzi infection; details: cited from earlier work

T2 sequence (P25326 115-331): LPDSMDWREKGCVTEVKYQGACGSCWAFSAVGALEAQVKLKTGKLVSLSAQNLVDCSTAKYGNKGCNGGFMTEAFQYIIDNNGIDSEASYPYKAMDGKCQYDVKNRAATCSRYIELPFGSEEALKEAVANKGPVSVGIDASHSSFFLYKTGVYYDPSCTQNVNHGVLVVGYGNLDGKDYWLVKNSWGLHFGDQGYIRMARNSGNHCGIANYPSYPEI
T1 sequence (P25779 123-467): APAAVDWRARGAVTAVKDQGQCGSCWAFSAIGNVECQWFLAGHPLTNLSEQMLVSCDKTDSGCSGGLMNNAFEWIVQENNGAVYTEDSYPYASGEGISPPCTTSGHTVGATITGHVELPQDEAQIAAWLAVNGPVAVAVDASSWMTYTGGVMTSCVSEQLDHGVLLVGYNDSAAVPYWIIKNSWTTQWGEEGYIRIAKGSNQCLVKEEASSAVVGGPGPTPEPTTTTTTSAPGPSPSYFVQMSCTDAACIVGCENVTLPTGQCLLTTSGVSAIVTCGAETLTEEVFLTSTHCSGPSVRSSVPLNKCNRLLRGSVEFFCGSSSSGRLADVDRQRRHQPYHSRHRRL
T3 sequence (P07711 114-333): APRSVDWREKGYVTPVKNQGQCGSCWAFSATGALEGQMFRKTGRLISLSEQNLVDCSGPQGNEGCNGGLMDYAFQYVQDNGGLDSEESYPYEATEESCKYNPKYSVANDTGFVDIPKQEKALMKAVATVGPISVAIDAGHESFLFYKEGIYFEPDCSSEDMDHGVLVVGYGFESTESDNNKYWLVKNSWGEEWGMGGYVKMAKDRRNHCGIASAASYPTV

Structure (SMILES)	Ki [1]	Ki [2]	Ki [3]	Ki [4]	effect on replication and differentiation of the parasite [5]	cure during the acute phase of infection [6]
CC(C)(C)c1ccc(C(=O)N[C@@H](Cc2ccc(O)cc2)C(=O)N[C@]23CCC[C@H]2OCC3=O)cc1 [Example 1, (3aR, 6aR) 4-tert-Butyl-N-[2-(4-hydroxyphenyl)-1S-(3-oxo-hexahydrocyclopenta[b]furan-3a-ylcarbamoyl)-ethyl]benzamide]	< 2 µM	> 50 µM	> 20 µM	> 100 µM		
CC(C)C[C@H](NC(=O)c1cc2ccccc2s1)C(=O)N[C@]12CCC[C@H]1OCC2=O [Example 6, (3aR, 6aR) Benzo[b]thiophene-2-carboxylic acid [3-methyl-1S-(3-oxo-hexahydrocyclopenta[b]furan-3a-ylcarbamoyl)butyl]amide]	> 20 µM	> 25 µM	> 10 µM	< 2 µM		
O=C(N[C@@H](CC1CCCCC1)C(=O)N[C@]12CCC[C@H]1OCC2=O)c1ccsc1 [Example 7, (3aR, 6aR) Thiophene-3-carboxylic acid [2-cyclohexyl-1S-(3-oxo-hexahydrocyclopenta[b]furan-3a-ylcarbamoyl)ethyl]amide]	> 50 µM	< 2 µM	> 25 µM	> 50 µM		
CC(NC(=O)C(Cc1ccccc1)NC(=O)OCc1ccccc1)C(=O)CF (stereo not drawn) [Z-Phe-Ala-FMK]					blocked replication and differentiation of the parasite	
O=C(Cn1ccnc1[N+](=O)[O-])NCc1ccccc1 [benznidazole]						~60%

— patent US6958358B2, “Inhibitors of cruzipain and other cysteine proteases” (Amura Therapeutics Limited, priority 2001, dated 2005)
